# Test results taken from paper PMC2954458 (Biochemistry, 2010).
# Target: Pdr5 (Saccharomyces cerevisiae, UniProt P33302)
# Assay: ATPase assay, purified plasma membrane vesicles, Δpdr5 background subtracted
# Type: biochemical
# Details: 100 mM MOPS pH 7.4, 50 mM KCl, 10 mM MgCl2, 5 mM NaN3, 35 °C
# Chain of Pdr5 (P33302 whole entry): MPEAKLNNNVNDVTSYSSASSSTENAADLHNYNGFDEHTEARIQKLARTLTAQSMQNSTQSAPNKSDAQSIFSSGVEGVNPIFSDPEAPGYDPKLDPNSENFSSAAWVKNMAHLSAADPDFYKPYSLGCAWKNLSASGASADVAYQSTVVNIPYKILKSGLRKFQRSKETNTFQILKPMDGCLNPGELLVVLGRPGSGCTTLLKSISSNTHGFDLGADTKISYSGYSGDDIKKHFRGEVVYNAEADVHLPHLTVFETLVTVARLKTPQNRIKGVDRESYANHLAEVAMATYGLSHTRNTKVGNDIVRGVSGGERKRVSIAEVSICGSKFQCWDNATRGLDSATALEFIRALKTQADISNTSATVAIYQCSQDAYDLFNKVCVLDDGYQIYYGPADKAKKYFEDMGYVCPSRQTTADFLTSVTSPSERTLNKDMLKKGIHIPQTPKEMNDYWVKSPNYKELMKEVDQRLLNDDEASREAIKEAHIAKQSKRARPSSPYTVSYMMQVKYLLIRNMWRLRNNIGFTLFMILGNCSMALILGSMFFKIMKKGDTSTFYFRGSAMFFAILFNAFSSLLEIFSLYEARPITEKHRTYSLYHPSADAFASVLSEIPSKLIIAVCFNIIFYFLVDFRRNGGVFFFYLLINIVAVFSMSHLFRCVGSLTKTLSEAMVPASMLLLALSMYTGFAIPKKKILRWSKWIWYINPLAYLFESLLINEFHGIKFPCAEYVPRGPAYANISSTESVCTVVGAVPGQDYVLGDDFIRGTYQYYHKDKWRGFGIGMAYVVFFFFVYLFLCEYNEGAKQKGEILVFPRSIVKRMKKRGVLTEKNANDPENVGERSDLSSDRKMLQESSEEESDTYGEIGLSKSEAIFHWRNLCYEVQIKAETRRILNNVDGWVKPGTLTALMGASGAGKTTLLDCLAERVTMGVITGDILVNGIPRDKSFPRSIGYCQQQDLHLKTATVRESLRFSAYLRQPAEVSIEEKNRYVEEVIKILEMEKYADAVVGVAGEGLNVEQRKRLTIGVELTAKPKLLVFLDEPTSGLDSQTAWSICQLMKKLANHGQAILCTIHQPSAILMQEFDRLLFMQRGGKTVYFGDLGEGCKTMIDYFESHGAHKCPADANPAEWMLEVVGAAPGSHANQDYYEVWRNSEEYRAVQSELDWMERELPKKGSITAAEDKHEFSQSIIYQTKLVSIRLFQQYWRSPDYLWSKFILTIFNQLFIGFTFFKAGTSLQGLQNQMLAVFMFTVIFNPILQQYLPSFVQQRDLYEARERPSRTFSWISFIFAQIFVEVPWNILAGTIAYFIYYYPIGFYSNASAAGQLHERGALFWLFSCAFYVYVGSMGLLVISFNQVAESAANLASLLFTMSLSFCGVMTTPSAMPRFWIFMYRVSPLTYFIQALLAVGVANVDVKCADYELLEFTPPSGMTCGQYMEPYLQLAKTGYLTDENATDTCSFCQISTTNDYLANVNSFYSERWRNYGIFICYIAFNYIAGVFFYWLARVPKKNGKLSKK
compound,measurement,value
Nc1ncnc2c1ncn2[C@@H]1O[C@H](COP(=O)(O)OP(=O)(O)OP(=O)(O)O)[C@@H](O)[C@H]1O [ATP],Km,There was little or no difference in the observed Kms
